Results taken from patent publication US9623030B2, “Tumescent antibiotic solution” (priority 2004, dated 2017).
≈ marks a conversion by molar mass, not a printed value.

Tests used:
[1] = female, human, in vivo
Description: A clinical pharmacologic investigation was conducted to compare the pharmacokinetic advantages of two modes of systemic antibiotic delivery, Tumescent antibiotic delivery (TAD), which involves the delivery of a relatively large volume of an antibiotic-containing solution to the subcutaneous compartment, and intravenous antibiotic delivery (IVAD), which results in direct delivery of antibiotics to the blood stream, for prophylaxis of SSI.
With Institutional Review Board (IRB) approval, the absorption pharmacokinetics of tumescent antibiotic delivery (TAD) and intravenous antibiotic delivery (IVAD) were tested in human subjects and the antibiotic delivery modes were evaluated with respect to the area under the curve (AUC) of antibiotic concentration as a function of time and peak antibiotic concentration (Cmax) in serum and TISF. 4 female subjects participated in at least one study, one subject volunteered for 2 separate studies. 5 studies were conducted: 3 involved TAD to the abdomen, 1 involved TAD to the hips and outer thighs and 1 involved TAD to the breasts. […] Each of the 5 studies consisted of 2 to 3 pharmacokinetic procedures, for a total of 14 procedures. Any procedures conducted on an individual subject were separated by at least one week. In 13 procedures only IVAD or TAD, was used. […]

[2] = 1 gm given at the end of the surgery; 405 abdominal surgery patients; cited from earlier work
[3] = cited from earlier work
platelet aggregation = conditions: cited from earlier work
S. aureus = conditions: effect increases with greater duration of exposure; cited from earlier work
[4] = tested on: Staphyloccus aureus (MRSA) ATCC 33592; assay: Minimum Inhibitory Concentration (MIC) by dilution; conditions: Staphylococcus aureus, read-out: MIC
Description: Following inoculation, survival of test microorganisms was determined.

Question: Which “interval in which serum concentration of metronidazole exceeded 4 μg/ml” value [1] does the source give for Cc1ncc([N+](=O)[O-])n1CCO [Metronidazole] here?
Answer: 0 to 12 h

Question: Which “incidence of wound infection, intravenous vs intra incisional” value [2] does the source give for O=C(Cc1cccs1)N[C@@H]1C(=O)N2C(C(=O)[O-])=C(C[n+]3ccccc3)CS[C@H]12 [cephaloridine] here?
Answer: no significant difference

Question: For CCN(CC)CC(=O)Nc1c(C)cccc1C [Lidocaine], which “maximum safe mg/kg dosage of tumescent lidocaine (estimated)” value ([3]; adults, TLA without liposuction) is on record?
Answer: 30 mg/kg

Question: And the “dosage limitation approved by the FDA for infiltration local anesthesia” value ([3]; commercial lidocaine (1%) with epinephrine (1:100,000))?
Answer: 7 mg/kg

Question: What about the “duration of local anesthesia” value ([3]; routine local anesthesia) of the same molecule?
Answer: 2 h

Question: And the “lidocaine concentration consistently inhibiting in-vitro platelet aggregation” value (platelet aggregation; aggregation induced by ADP, epinephrine and collagen)?
Answer: ≥ 0.5 mg/mL

Question: And the “effect on platelet aggregation” value (platelet aggregation; safe systemic concentrations (≦6 micrograms/ml))?
Answer: no effect

Question: What about the “bactericidal effect in vitro” value (S. aureus) of the same molecule?
Answer: bactericidal

Question: With Cc1nnc(SCC2=C(C(=O)O)N3C(=O)[C@@H](NC(=O)Cn4cnnn4)[C@H]3SC2)s1 [Cefazolin] as the molecule, how does the MIC [4] read?
Answer: 125 to 250 µg/mL (≈ 275 to 550 µM)
